Laboratory results: patent US20170326232A1, “INTRATUMORAL ADMINISTRATION OF PARTICLES CONTAINING A TOLL-LIKE RECEPTOR 9 AGONIST AND A TUMOR ANTIGEN FOR TREATING CANCER” (Dynavax Technologies Corporation, priority 2016, published 2017)
Values joined by “and” are separate entries in the source; they are usually repeats but may differ in a detail not shown here. Equal entries are not always repeated. Where two headings read alike, the source gives them in different places. Square brackets hold non-standard residues; d marks the D form. Ends that are not written are not given here. PEG24 = NCCOCCOCCOCCOCCOCCOCCOCCOCCOCCOCCOCCOCCOCCOCCOCCOCCOCCOCCOCCOCCOCCOCCOCCOCCC(=O)O; Cha = N[C@@H](CC1CCCCC1)C(=O)O

Assays:
Format in all cases: physicochemical
[1] = Solubilization of peptide antigens in buffers and organic solvents (visual assessment); set-up: key to Qualitative Solubility score: 1 = fully soluble/clarity similar to water; 2 = partially soluble; 3 = insoluble
[2] = Adsorption of CpG-ODN to aluminum hydroxide, quantified by UV absorbance at 260 nm; settings: for D61-01 binding: co-adsorption with AH1 CII peptide; for % D61-04 Bound: Al(OH)3 1.0 mg
[3] = Adsorption of peptide antigens to aluminum hydroxide, quantified by UV, amino acid analysis or RP-HPLC; settings: RP-HPLC at 215 nm
[4] = 10 mM NaOAc, 150 mM NaCl, pH 7.0
[5] = input 0.25 mg to 1 mg aluminum hydroxide, pH 7.0
[6] = input 0.50 mg to 1 mg aluminum hydroxide, pH 7.0
[7] = input 1.0 mg to 1 mg aluminum hydroxide, pH 7.0
[8] = input 1.5 mg to 1 mg aluminum hydroxide, pH 7.0

## CSGLEQLESIINFEKLTEWTSSNVMEERKIKV [OVApep]
[1]; 0.1 M sodium bicarbonate buffer, 0.1 M sodium bicarbonate, pH 8 buffer, read-out: solubility
  solubility: 2000 to 4000 µg/mL
[1]; water, PBS or sodium acetate (NaOAc) buffers
  solubility: not appreciably soluble

## 5′-TCGGCGC-3′-HEG-5′-AACGTTC-3′-HEG-5′-TCGGCGC-3′ (DNA TCGGCGCAACGTTCTCGGCGC; HEG spacers, phosphorothioate linkages, chemistry not fully specified) [D61-01]
[2]; [4]
  maximum bound by 1 mg of aluminum hydroxide: 1.0 mg
[2]; 10 mM NaOAc, 150 mM NaCl, pH 7.0, Table S3-1
  D61-01 Binding efficiency: 71-100%
[2]; 2.5 mg of aluminum
  D61-01 binding: 86%
[2]; four out of five conditions
  D61-01 binding: 100%
[2]; co-adsorption with HPV16 peptide, two reactions
  D61-01 binding efficiencies: 74% and 80%
[2]; [5]
  Binding efficiency: 100%
  Bound: 0.25 mg
[2]; [6]
  Binding efficiency: 100%
  Bound: 0.50 mg
[2]; [7]
  Binding efficiency: 99%
  Bound: 0.99 mg
[2]; [8]
  Binding efficiency: 65%
  Bound: 0.97 mg

## [PEG24]VGALEGPRNQDWLAK[Cha]VAAWTLKAAATAYRYHLLSSVYDFFVWLSC [Triple, PEG24-VGALEGPRNQDWLAKXVAAWTLKAAATAYRYHLLSSVYDFFVWLSC wherein X = L-cyclohexylalanine]
[1]; 0.1 M sodium bicarbonate pH 8 buffer, water, PBS, sodium bicarbonate or NaOAc buffers
  solubility: not appreciably soluble
[1]; 6M guanidine hydrochloride pH 8.5 or 20% IPA/water (v/v), read-out: solubility
  solubility: 1000 to 5000 µg/mL

## 5′-TCGAACGTTCGAACGTTCGAACGTTCGAAT-3′ (DNA TCGAACGTTCGAACGTTCGAACGTTCGAAT; DNA, all phosphorothioate, methylation of C not given here) [D61-04]
[2]; [4]
  maximum bound by 1 mg of aluminum hydroxide: 1.1 mg
[2]; [5]
  Binding efficiency: 100%
  Bound: 0.25 mg
[2]; [6]
  Binding efficiency: 100%
  Bound: 0.50 mg
[2]; [7]
  Binding efficiency: 89%
  Bound: 0.89 mg
[2]; [8]
  Binding efficiency: 73%
  Bound: 1.1 mg
[2]; pH 6.5, D61-04 input 1.0 mg
  % D61-04 Bound: 92%
[2]; pH 6.5, D61-04 input 1.5 mg
  % D61-04 Bound: 78%
[2]; pH 6.5, D61-04 input 2.0 mg
  % D61-04 Bound: 63%
[2]; pH 7.0, D61-04 input 1.0 mg
  % D61-04 Bound: 91%
[2]; pH 7.0, D61-04 input 1.5 mg
  % D61-04 Bound: 73%
[2]; pH 7.0, D61-04 input 2.0 mg
  % D61-04 Bound: 61%
[2]; pH 7.5, D61-04 input 1.0 mg
  % D61-04 Bound: 92%
[2]; pH 7.5, D61-04 input 1.5 mg
  % D61-04 Bound: 74%
[2]; pH 7.5, D61-04 input 2.0 mg
  % D61-04 Bound: 60%

## HRQLQLSISSCLQQLSLLMWITQCFLPVFLAQ [NY-ESO-1142-173 OLP]
[3]; 2-Butanol
  (%) binding efficiency to aluminum hydroxide: 100%
[3]; Acetic acid
  (%) binding efficiency to aluminum hydroxide: 100%
[3]; Acetone
  (%) binding efficiency to aluminum hydroxide: 100%
[3]; Ethanol
  (%) binding efficiency to aluminum hydroxide: 100%
[3]; Formic acid
  (%) binding efficiency to aluminum hydroxide: 100%
[3]; Isopropyl alcohol
  (%) binding efficiency to aluminum hydroxide: 100%
[1]; Acetic acid
  Qualitative Solubility score: 1
  Visual Appearance: clear
[1]; Acetone
  Qualitative Solubility score: 1
  Visual Appearance: clear
[1]; Ethanol
  Qualitative Solubility score: 1
  Visual Appearance: clear
[1]; Formic acid
  Qualitative Solubility score: 1
  Visual Appearance: clear
[1]; Isoamyl alcohol
  Qualitative Solubility score: 3
  Visual Appearance: hazy
[1]; Isopropyl acetate
  Qualitative Solubility score: 3
  Visual Appearance: hazy/insoluble
[1]; Methyl acetate
  Qualitative Solubility score: 3
  Visual Appearance: hazy/insoluble
[1]; n-Butyl acetate
  Qualitative Solubility score: 3
  Visual Appearance: hazy/insoluble
[1]; six solvents diluted to 20% solvent/80% water (v/v), data not shown
  solubility after dilution of solvent: remained visually soluble
